Reference: patent publication US9751907B2, “Arbekacin derivative, and production and use thereof” (MEIJI SEIKA PHARMA CO., LTD., priority 2013, dated 2017)

Tests used:
[1] = Storage stability of the solid at 40° C. and 75% humidity, related substances analysed by HPLC; assay type: physicochemical; settings: for Amount of related substances increased: related substance content: 40° C., 75% RH
Protocol: The HPLC analysis conditions were as described in (3) Dibekacin and (4) Related substance in the purity test for arbekacin sulfate in the Japanese Pharmacopoeia Sixteen Edition.
Specifically, arbekacin free base was stored at 40° C. and a humidity of 75% for 1 month and 2 months, and the amount of related substances changed was analyzed by HPLC.

[2] = Moisture-absorbing properties on storage at 40° C. at defined humidity; assay type: physicochemical; settings: stored at 40° C.

**Q.** With `NCC[C@H](O)C(=O)N[C@@H]1C[C@H](N)[C@@H](O[C@H]2O[C@H](CN)CC[C@H]2N)[C@H](O)[C@H]1O[C@H]1O[C@H](CO)[C@@H](O)[C@H](N)[C@H]1O` [arbekacin free base, Arbekacin] as the compound, how does the “Amount of related substances increased: related substance content” value ([1]; 1-month storage) read?
**A.** 1.7%

**Q.** What about the “Amount of related substances increased: related substance content” value ([1]; 2-month storage) of the same compound?
**A.** 4.3%

**Q.** And the “amount of the related substances changed (i.e., the amount increased)” value ([1]; stored at 40° C. and a humidity of 75% for 1 month and 2 months)?
**A.** ≥ 4%

**Q.** What about the moisture-absorbing properties ([2]; Humidity 12%) of the same compound?
**A.** 1.60

**Q.** And the moisture-absorbing properties ([2]; Humidity 22%)?
**A.** 4.62

**Q.** What about the moisture-absorbing properties ([2]; Humidity 30%) of the same compound?
**A.** 6.25

**Q.** What about the moisture-absorbing properties ([2]; Humidity 43%) of the same compound?
**A.** 7.54

**Q.** And the moisture-absorbing properties ([2]; Humidity 53%)?
**A.** 9.14
